Experimental data: US9302999B2, “Substituted triazoles as herbicides” (E. I. DU PONT DE NEMOURS AND COMPANY, priority 2012, dated 2016)

Columns and labels:
Format in all cases: in vivo
corn (Zea mays) = experiment: Test E pre-/postemergence: corn; conditions: Preemergence, scale 0 to 100
From the text: (§1) Seeds of plant species selected from corn (Zea mays), soybean (Glycine max), velvetleaf (Abutilon theophrasti), lambsquarters (Chenopodium album), poinsettia, wild (wild poinsettia, Euphorbia heterophylla), pigweed, palmer (palmer pigweed, Amaranthus palmeri), waterhemp (common waterhemp, Amaranthus rudis), smartweed (ladysthumb smartweed, Polygonum persicaria), surinam grass (Brachiaria decumbens), crabgrass, large (large crabgrass, Digitaria sanguinalis), crabgrass, Brazil (Brazilian crabgrass, Digitaria horizontalis), panicum, fall (fall panicum, Panicum dichotomiflorum), foxtail, giant (giant foxtail, Setaria faberii), foxtail, green (green foxtail, Setaria viridis), goosegrass (Eleusine indica), johnsongrass (Sorghum halepense), ragweed (common ragweed, Ambrosia elation), barnyardgrass (Echinochloa crus-galli), sandbur (southern sandbur, Cenchrus echinatus), arrowleaf sida (Sida rhombifolia), ryegrass, Italian (Italian ryegrass, Lolium multiflorum), dayflower, (VA) (Virginia dayflower, Commelina virginica), field bindweed (Convolvulus arvensis), cocklebur (common cocklebur, Xanthium strumarium), morningglory (Ipomoea coccinea), nightshade (eastern black nightshade, Solanum ptycanthum), kochia (Kochia scoparia), nutsedge, yellow (yellow nutsedge, Cyperus esculentus) and beggarticks (hairy beggarticks, Bidens pilosa) were planted into a silt loam soil and treated preemergence with test chemicals formulated in a non-phytotoxic solvent mixture which included a surfactant. At the same time, plants selected from these crop and weed species were planted in pots containing a growing medium comprising spaghnum peat moss, vermiculite, wetting agent and starter nutrients and treated with postemergence applications of some of the test chemicals formulated in the same manner. Plants ranged in height from 2 to 18 cm for postemergence treatments (1- to 4-leaf stage).
(§2) Treated plants and controls were maintained in a greenhouse for 14 to 21 days, after which time all species were compared to controls and visually evaluated. Plant response ratings, summarized in Table E, are based on a scale of 0 to 100 where 0 is no effect and 100 is complete control. A dash (-) response means no test result.

[1] = test system: goosegrass (Eleusine indica); experiment: Test E pre-/postemergence: goosegrass; conditions: Preemergence, scale 0 to 100
From the text: as §1, §2

[2] = test system: arrowleaf sida (Sida rhombifolia); experiment: Test E pre-/postemergence: arrowleaf sida; conditions: Preemergence, scale 0 to 100
From the text: as §1, §2

[3] = test system: foxtail, green (green foxtail, Setaria viridis); experiment: Test E pre-/postemergence: foxtail, green; conditions: Preemergence, scale 0 to 100
From the text: as §1, §2

[4] = test system: surinam grass (Brachiaria decumbens); experiment: Test E pre-/postemergence: surinam grass; conditions: Preemergence, scale 0 to 100
From the text: as §1, §2

[5] = test system: sandbur (southern sandbur, Cenchrus echinatus); experiment: Test E pre-/postemergence: sandbur; conditions: Preemergence, scale 0 to 100
From the text: as §1, §2

[6] = test system: morningglory (Ipomoea coccinea); experiment: Test E pre-/postemergence: morningglory; conditions: Preemergence, scale 0 to 100
From the text: as §1, §2

[7] = test system: johnsongrass (Sorghum halepense); experiment: Test E pre-/postemergence: johnsongrass; conditions: Preemergence, scale 0 to 100
From the text: as §1, §2

[8] = test system: nightshade (eastern black nightshade, Solanum ptycanthum); experiment: Test E pre-/postemergence: nightshade; conditions: Preemergence, scale 0 to 100
From the text: as §1, §2

[9] = test system: panicum, fall (fall panicum, Panicum dichotomiflorum); experiment: Test E pre-/postemergence: panicum, fall; conditions: Preemergence, scale 0 to 100
From the text: as §1, §2

[10] = test system: lambsquarters (Chenopodium album); experiment: Test E pre-/postemergence: lambsquarters; conditions: Preemergence, scale 0 to 100
From the text: as §1, §2

[11] = test system: smartweed (ladysthumb smartweed, Polygonum persicaria); experiment: Test F pre-/postemergence: smartweed; conditions: Preemergence
From the text: Seeds of plant species selected from corn (Zea mays), soybean (Glycine max), velvetleaf (Abutilon theophrasti), lambsquarters (Chenopodium album), poinsettia, wild (wild poinsettia, Euphorbia heterophylla), pigweed, palmer (palmer pigweed, Amaranthus palmeri), waterhemp (common waterhemp, Amaranthus rudis), surinam grass (Brachiaria decumbens), crabgrass, Brazil (Brazilian crabgrass, Digitaria horizontalis), panicum, fall (fall panicum Panicum dichotomiflorum), crabgrass, large (large crabgrass, Digitaria sanguinalis), foxtail, giant (giant foxtail, Setaria faberii), foxtail, green (green foxtail Setaria viridis), goosegrass (Eleusine indica), ragweed (common ragweed, Ambrosia elatior), barnyardgrass (Echinochloa crus-galli), sandbur (southern sandbur, Cenchrus echinatus), arrowleaf sida (Sida rhombifolia), ryegrass, Italian (Italian ryegrass, Lolium multiflorum), dayflower, VA (Virginia (VA) dayflower, Commelina virginica), field bindweed (Convolvulus arvensis), cocklebur (common cocklebur, Xanthium strumarium), morningglory (Ipomoea coccinea), nightshade (eastern black nightshade, Solanum ptycanthum), kochia (Kochia scoparia), nutsedge, yellow (yellow nutsedge, Cyperus esculentus), johnsongrass (Sorghum halepense), smartweed (ladysthumb smartweed, Polygonum persicaria), and beggarticks (hairy beggarticks, Bidens pilosa), were planted into a silt loam soil and treated preemergence with test chemicals formulated in a non-phytotoxic solvent mixture which included a surfactant. At the same time, plants selected from these crop and weed species and also pigweed (Amaranthus retroflexus), waterhemp_RES1 (ALS/Triazine resistant common waterhemp, Amaranthus rudis) and waterhemp_RES2 (ALS/HPPD resistant common waterhemp, Amaranthus rudis) were planted in pots containing a planting medium comprising spaghnum peat moss, vermiculite, wetting agent and starter nutrients treated with postemergence applications of some of the test chemicals formulated in the same manner. Plants ranged in height from 2 to 18 cm for postemergence treatments (1- to 4-leaf stage).
as §2

## FC(F)(F)COc1nn(-c2ccc(C(F)(F)F)cc2)nc1Cc1ccnc(C(F)(F)F)c1 [Compound 14, 4-[[5-(2,2,2-trifluoroethoxy)-2-[4-(trifluoromethyl)phenyl]-2H-1,2,3-triazol-4-yl]methyl]-2-(trifluoromethyl)pyridine]
Corn (Zea mays); 16 g ai/ha
  Plant response rating: Corn: 0
Corn (Zea mays); 31 g ai/ha
  Plant response rating: Corn: 0
Corn (Zea mays); 62 g ai/ha
  Plant response rating: Corn: 0
Corn (Zea mays); 125 g ai/ha
  Plant response rating: Corn: 0
Corn (Zea mays); 250 g ai/ha
  Plant response rating: Corn: 0
[1]; 16 g ai/ha
  Plant response rating: Goosegrass: 65
[1]; 31 g ai/ha
  Plant response rating: Goosegrass: 100
[1]; 62 g ai/ha
  Plant response rating: Goosegrass: 100
[1]; 125 g ai/ha
  Plant response rating: Goosegrass: 100
[1]; 250 g ai/ha
  Plant response rating: Goosegrass: 100
[2]; 16 g ai/ha
  Plant response rating: Arrowleaf Sida: 10
[2]; 31 g ai/ha
  Plant response rating: Arrowleaf Sida: 30
[2]; 62 g ai/ha
  Plant response rating: Arrowleaf Sida: 30
[2]; 125 g ai/ha
  Plant response rating: Arrowleaf Sida: 65
[2]; 250 g ai/ha
  Plant response rating: Arrowleaf Sida: 80
[3]; 16 g ai/ha
  Plant response rating: Foxtail, Green: 25
[3]; 31 g ai/ha
  Plant response rating: Foxtail, Green: 35
[3]; 62 g ai/ha
  Plant response rating: Foxtail, Green: 50
[3]; 125 g ai/ha
  Plant response rating: Foxtail, Green: 70
[3]; 250 g ai/ha
  Plant response rating: Foxtail, Green: 100
[4]; 16 g ai/ha
  Plant response rating: Surinam Grass: 5
[4]; 31 g ai/ha
  Plant response rating: Surinam Grass: 10
[4]; 62 g ai/ha
  Plant response rating: Surinam Grass: 25
[4]; 125 g ai/ha
  Plant response rating: Surinam Grass: 65
[4]; 250 g ai/ha
  Plant response rating: Surinam Grass: 100
[5]; 16 g ai/ha
  Plant response rating: Sandbur: 5
[5]; 31 g ai/ha
  Plant response rating: Sandbur: 5
[5]; 62 g ai/ha
  Plant response rating: Sandbur: 15
[5]; 125 g ai/ha
  Plant response rating: Sandbur: 50
[5]; 250 g ai/ha
  Plant response rating: Sandbur: 50
[6]; 16 g ai/ha
  Plant response rating: Morningglory: 0
[6]; 31 g ai/ha
  Plant response rating: Morningglory: 20
[6]; 62 g ai/ha
  Plant response rating: Morningglory: 35
[6]; 125 g ai/ha
  Plant response rating: Morningglory: 75
[6]; 250 g ai/ha
  Plant response rating: Morningglory: 75
[7]; 16 g ai/ha
  Plant response rating: Johnsongrass: 10
[7]; 31 g ai/ha
  Plant response rating: Johnsongrass: 20
[7]; 62 g ai/ha
  Plant response rating: Johnsongrass: 70
[7]; 125 g ai/ha
  Plant response rating: Johnsongrass: 90
[7]; 250 g ai/ha
  Plant response rating: Johnsongrass: 95
[8]; 16 g ai/ha
  Plant response rating: Nightshade: 35
[8]; 31 g ai/ha
  Plant response rating: Nightshade: 60
[8]; 62 g ai/ha
  Plant response rating: Nightshade: 98
[8]; 125 g ai/ha
  Plant response rating: Nightshade: 98
[8]; 250 g ai/ha
  Plant response rating: Nightshade: 98
[9]; 16 g ai/ha
  Plant response rating: Panicum, Fall: 65
[9]; 31 g ai/ha
  Plant response rating: Panicum, Fall: 80
[9]; 62 g ai/ha
  Plant response rating: Panicum, Fall: 100
[9]; 125 g ai/ha
  Plant response rating: Panicum, Fall: 100
[9]; 250 g ai/ha
  Plant response rating: Panicum, Fall: 100
[10]; 16 g ai/ha
  Plant response rating: Lambsquarters: 80
[10]; 31 g ai/ha
  Plant response rating: Lambsquarters: 98
[10]; 62 g ai/ha
  Plant response rating: Lambsquarters: 98
[10]; 125 g ai/ha
  Plant response rating: Lambsquarters: 98
[10]; 250 g ai/ha
  Plant response rating: Lambsquarters: 98

## Cc1nn(-c2ccc(C(F)(F)F)cn2)nc1Oc1ccnc(C(F)(F)F)c1 [Compound 23]
Corn (Zea mays); 16 g ai/ha
  Plant response rating: Corn: 0
Corn (Zea mays); 31 g ai/ha
  Plant response rating: Corn: 0
Corn (Zea mays); 62 g ai/ha
  Plant response rating: Corn: 0
Corn (Zea mays); 125 g ai/ha
  Plant response rating: Corn: 0
Corn (Zea mays); 250 g ai/ha
  Plant response rating: Corn: 20
[1]; 16 g ai/ha
  Plant response rating: Goosegrass: 0
[1]; 62 g ai/ha
  Plant response rating: Goosegrass: 20
[1]; 125 g ai/ha
  Plant response rating: Goosegrass: 35
[1]; 250 g ai/ha
  Plant response rating: Goosegrass: 60
[2]; 16 g ai/ha
  Plant response rating: Arrowleaf Sida: 0
[2]; 31 g ai/ha
  Plant response rating: Arrowleaf Sida: 0
[2]; 62 g ai/ha
  Plant response rating: Arrowleaf Sida: 0
[2]; 125 g ai/ha
  Plant response rating: Arrowleaf Sida: 0
[2]; 250 g ai/ha
  Plant response rating: Arrowleaf Sida: 35
[3]; 16 g ai/ha
  Plant response rating: Foxtail, Green: 0
[3]; 31 g ai/ha
  Plant response rating: Foxtail, Green: 0
[3]; 62 g ai/ha
  Plant response rating: Foxtail, Green: 5
[3]; 125 g ai/ha
  Plant response rating: Foxtail, Green: 70
[3]; 250 g ai/ha
  Plant response rating: Foxtail, Green: 95
[4]; 16 g ai/ha
  Plant response rating: Surinam Grass: 0
[4]; 31 g ai/ha
  Plant response rating: Surinam Grass: 0
[4]; 62 g ai/ha
  Plant response rating: Surinam Grass: 10
[4]; 125 g ai/ha
  Plant response rating: Surinam Grass: 20
[4]; 250 g ai/ha
  Plant response rating: Surinam Grass: 20
[5]; 16 g ai/ha
  Plant response rating: Sandbur: 0
[5]; 31 g ai/ha
  Plant response rating: Sandbur: 0
[5]; 62 g ai/ha
  Plant response rating: Sandbur: 0
[5]; 125 g ai/ha
  Plant response rating: Sandbur: 25
[5]; 250 g ai/ha
  Plant response rating: Sandbur: 65
[7]; 16 g ai/ha
  Plant response rating: Johnsongrass: 0
[7]; 31 g ai/ha
  Plant response rating: Johnsongrass: 0
[7]; 62 g ai/ha
  Plant response rating: Johnsongrass: 0
[7]; 125 g ai/ha
  Plant response rating: Johnsongrass: 20
[7]; 250 g ai/ha
  Plant response rating: Johnsongrass: 60
[8]; 16 g ai/ha
  Plant response rating: Nightshade: 0
[8]; 31 g ai/ha
  Plant response rating: Nightshade: 0
[8]; 62 g ai/ha
  Plant response rating: Nightshade: 0
[8]; 125 g ai/ha
  Plant response rating: Nightshade: 95
[8]; 250 g ai/ha
  Plant response rating: Nightshade: 98
[9]; 16 g ai/ha
  Plant response rating: Panicum, Fall: 0
[9]; 31 g ai/ha
  Plant response rating: Panicum, Fall: 15
[9]; 62 g ai/ha
  Plant response rating: Panicum, Fall: 80
[9]; 125 g ai/ha
  Plant response rating: Panicum, Fall: 100
[9]; 250 g ai/ha
  Plant response rating: Panicum, Fall: 100
[10]; 31 g ai/ha
  Plant response rating: Lambsquarters: 0
[10]; 62 g ai/ha
  Plant response rating: Lambsquarters: 0
[10]; 125 g ai/ha
  Plant response rating: Lambsquarters: 98
[10]; 250 g ai/ha
  Plant response rating: Lambsquarters: 98

## Cc1nn(-c2ccc(C(F)(F)F)c(F)c2)nc1Oc1ccnc(C(F)(F)F)c1 [Compound 148]
[11]; 16 g ai/ha, scale 0 to 100, 0 no effect, 100 complete control
  Plant response rating, Smartweed: 0
[11]; 31 g ai/ha, scale 0 to 100, 0 no effect, 100 complete control
  Plant response rating, Smartweed: 0
[11]; 125 g ai/ha, scale 0 to 100
  Plant response rating, Smartweed: 75
[11]; 250 g ai/ha, scale 0 to 100
  Plant response rating, Smartweed: 90
